{"source": "patent US8569302B2", "about": "“Inhibitors of flaviviridae viruses” (Gilead Sciences, Inc., priority 2009, dated 2013)", "data": [{"test_system": "human hepatoma Huh-7 cell line harboring a HCV replicon", "experiment": "HCV replicon assay (inhibition of viral replication, luciferase readout)", "type": "cell-based", "conditions": "Hepatitis C virus, 72 h, Huh-7 HCV replicon cells, 3 days incubation", "summary_of_the_method": "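Huh-7 replicon cells were exposed to 10-point 3-fold compound dilutions (0.44% DMSO) for 3 days at 37 °C. Replicon replication was read by Dual-Glo luciferase, with background from protease-inhibitor wells subtracted, and viability by calcein AM. EC50/CC50 came from a Hill-equation fit versus DMSO controls.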", "units": {"inhibition at 2 µM": "%"}, "values": [{"compound": "CC1CCC(C(=O)N(c2cc(C#CC(C)(C)COC3CCCCO3)sc2C(=O)O)C2CCC(Oc3ccccn3)CC2)CC1", "note": "(stereo not drawn) [Compound 311, 5-[3,3-Dimethyl-4-(tetrahydro-pyran-2-yloxy)-but-1-ynyl]-3-{(4-methyl-cyclohexanecarbonyl)-[4-(pyridin-2-yloxy)-cyclohexyl]-amino}-thiophene-2-carboxylic acid]", "inhibition at 2 µM": 95.2}, {"compound": "CC(C)(C#Cc1cc(N(C(=O)[C@H]2CC[C@H](C)CC2)[C@H]2CC[C@H](OC3CCOC3)CC2)c(C(=O)O)s1)CCO", "note": "(stereo partly drawn) [Compound 314, 5-(5-Hydroxy-3,3-dimethyl-pent-1-ynyl)-3-{(4-methyl-cyclohexanecarbonyl)-[4-(tetrahydro-furan-3-yloxy)-cyclohexyl]-amino}-thiophene-2-carboxylic acid]", "inhibition at 2 µM": 99.9}, {"compound": "CC(C)(C)C#Cc1cc(N(C(=O)[C@H]2CC[C@H](C)CC2)[C@H]2CC[C@H](O[C@H]3COC[C@H]3O)CC2)c(C(=O)O)s1", "note": "[Compound 317, 5-(3,3-dimethyl-but-1-ynyl)-3-[[4-(4-cis-hydroxy-tetrahydro-furan-3-yloxy)-cyclohexyl]-(4-methyl-cyclohexanecarbonyl)-amino]-thiophene-2-carboxylic acid]", "inhibition at 2 µM": 100}, {"compound": "CC(C)(C)C#Cc1cc(N(C(=O)[C@H]2CC[C@H](C)CC2)[C@H]2CC[C@H](O[C@H]3COC[C@@H]3O)CC2)c(C(=O)O)s1", "note": "[Compound 318, 5-(3,3-Dimethyl-but-1-ynyl)-3-[[4-(4-trans-hydroxy-tetrahydro-furan-3-yloxy)-cyclohexyl]-(4-methyl-cyclohexanecarbonyl)-amino]-thiophene-2-carboxylic acid]", "inhibition at 2 µM": 99.7}, {"compound": "CC1CCC(C(=O)N(c2cc(C#CC(C)(C)C)sc2C(=O)O)[C@H]2CCN(CCOc3ccccn3)C2)CC1", "note": "(stereo partly drawn) [Compound 321]", "inhibition at 2 µM": 99.9}, {"compound": "CC(C)(C)C#Cc1cc(N(C(=O)[C@H]2CC[C@H](C)CC2)[C@H]2CC[C@H](O[C@@H]3CCOC3)CC2)c(C(=O)O)s1", "note": "[Compound 322]", "inhibition at 2 µM": 100}, {"compound": "C=C1CCC(C(=O)N(c2cc(C#CC(C)(C)C)sc2C(=O)O)[C@H]2CC[C@H](Oc3cc(CN(C)C)ccn3)CC2)CC1", "note": "[Compound 325, 3-[[4-(4-dimethylaminomethyl-pyridin-2-yloxy)-cyclohexyl]-(4-methylene-cyclohexanecarbonyl)-amino]-5-(3,3-dimethyl-but-1-ynyl)-thiophene-2-carboxylic acid]", "inhibition at 2 µM": 100}, {"compound": "CC(C)(C)C#Cc1cc(N(C(=O)[C@H]2CC[C@H](C)CC2)[C@H]2CC[C@H](Oc3nccc(=O)[nH]3)CC2)c(C(=O)O)s1", "note": "[Compound 326, 5-(3,3-Dimethyl-but-1-ynyl)-3-{(4-methyl-cyclohexanecarbonyl)-[4-(6-oxo-1,6-dihydro-pyrimidin-2-yloxy)-cyclohexyl]-amino}-thiophene-2-carboxylic acid]", "inhibition at 2 µM": 99.9}, {"compound": "CC(C)(C)C#Cc1cc(N(C(=O)[C@H]2CC[C@H](C)CC2)[C@H]2CC[C@H](O[C@H]3CCOC3)CC2)c(C(=O)O)s1", "note": "[Compound 331, 5-(3,3-Dimethyl-but-1-ynyl)-3-{(trans-4-methyl-cyclohexanecarbonyl)-[4-(tetrahydro-furan-3(S)-yloxy)-trans-cyclohexyl]-amino}-thiophene-2-carboxylic acid]", "inhibition at 2 µM": 100}, {"compound": "CC(C)(C)C#Cc1cc(N(C(=O)[C@H]2CC[C@H](C)CC2)[C@H]2CC[C@@H](O[C@H]3CCOC3)CC2)c(C(=O)O)s1", "note": "[Compound 332, 5-(3,3-Dimethyl-but-1-ynyl)-3-{(trans-4-methyl-cyclohexanecarbonyl)-[4-(tetrahydro-furan-3(S)-yloxy)-cis-cyclohexyl]-amino}-thiophene-2-carboxylic acid]", "inhibition at 2 µM": 99.9}, {"compound": "CC1=CC[C@@H](C(=O)N(c2cc(C#CC(C)(C)C)sc2C(=O)O)[C@H]2CC[C@H](O[C@H]3CCOC3)CC2)CC1", "note": "[Compound 333]", "inhibition at 2 µM": 100}, {"compound": "CC1=CC[C@@H](C(=O)N(c2cc(C#CC(C)(C)C)sc2C(=O)O)[C@H]2CC[C@H](OC3CCOC3)CC2)CC1", "note": "(stereo partly drawn) [Compound 334]", "inhibition at 2 µM": 99.9}, {"compound": "CC1=CC[C@H](C(=O)N(c2cc(C#CC(C)(C)C)sc2C(=O)O)[C@H]2CC[C@H](OC3CCOC3)CC2)CC1", "note": "(stereo partly drawn) [Compound 335]", "inhibition at 2 µM": 99.9}, {"compound": "CC1=CC[C@H](C(=O)N(c2cc(C#CC(C)(C)C)sc2C(=O)O)[C@H]2CC[C@H](O[C@H]3CCOC3)CC2)CC1", "note": "[Compound 336]", "inhibition at 2 µM": 100}, {"compound": "CC1=CC[C@@H](C(=O)N(c2cc(C#CC(C)(C)C)sc2C(=O)O)[C@H]2CC[C@H](Oc3cc(CN(C)C)ccn3)CC2)CC1", "note": "[Compound 337, 3-[[4-(4-Dimethylaminomethyl-pyridin-2-yloxy)-trans-cyclohexyl]-(4-methyl-cyclohex-3-enecarbonyl)-amino]-5-(3,3-dimethyl-but-1-ynyl)-thiophene-2-carboxylic acid]", "inhibition at 2 µM": 100}, {"compound": "CN(C)Cc1ccnc(O[C@H]2CC[C@H](N(c3cc(C#CC4(C(F)(F)F)CCC4)sc3C(=O)O)C(=O)[C@H]3CC[C@H](C)CC3)CC2)c1", "note": "[Compound 338, 3-((1r,4R)—N-((1r,4R)-4-(4-((dimethylamino)methyl)pyridin-2-yloxy)cyclohexyl)-4-methylcyclohexanecarboxamido)-5-((1-(trifluoromethyl)cyclobutyl)ethynyl)thiophene-2-carboxylic acid]", "inhibition at 2 µM": 99.9}, {"compound": "C[C@H]1CC[C@H](C(=O)N(c2cc(C#CC3(C(F)(F)F)CCC3)sc2C(=O)O)[C@H]2CC[C@H](Oc3ccc(O)nn3)CC2)CC1", "note": "[Compound 339, 3-((1r,4R)—N-((1r,4R)-4-(6-hydroxypyridazin-3-yloxy)cyclohexyl)-4-methylcyclohexanecarboxamido)-5-((1-(trifluoromethyl)cyclobutyl)ethynyl)thiophene-2-carboxylic acid]", "inhibition at 2 µM": 99.9}, {"compound": "CN(C)Cc1ccnc(O[C@H]2CC[C@H](N(c3cc(C#CC4(C(F)(F)F)CC4)sc3C(=O)O)C(=O)[C@H]3CC[C@H](C)CC3)CC2)c1", "note": "[Compound 340, 3-((1r,4R)—N-((1r,4R)-4-(4-((dimethylamino)methyl)pyridin-2-yloxy)cyclohexyl)-4-methylcyclohexanecarboxamido)-5-((1-(trifluoromethyl)cyclopropyl)ethynyl)thiophene-2-carboxylic acid]", "inhibition at 2 µM": 100}, {"compound": "CN(C)Cc1ccnc(O[C@H]2CC[C@H](N(c3cc(C#CC(C)(C)C(F)(F)F)sc3C(=O)O)C(=O)[C@H]3CC[C@H](C)CC3)CC2)c1", "note": "[Compound 341, 3-((1r,4R)—N-((1r,4R)-4-(4-((dimethylamino)methyl)pyridin-2-yloxy)cyclohexyl)-4-methylcyclohexanecarboxamido)-5-(4,4,4-trifluoro-3,3-dimethylbut-1-ynyl)thiophene-2-carboxylic acid]", "inhibition at 2 µM": 100}, {"compound": "C[C@H]1CC[C@H](C(=O)N(c2cc(C#CC3(C(F)(F)F)CC3)sc2C(=O)O)[C@H]2CC[C@H](Oc3ccc(O)nn3)CC2)CC1", "note": "[Compound 342, 3-((1r,4R)—N-((1r,4R)-4-(6-hydroxypyridazin-3-yloxy)cyclohexyl)-4-methylcyclohexanecarboxamido)-5-((1-(trifluoromethyl)cyclopropyl)ethynyl)thiophene-2-carboxylic acid]", "inhibition at 2 µM": 100}, {"compound": "CC(C)(C#Cc1cc(N(C(=O)[C@H]2CC[C@H](C)CC2)[C@H]2CC[C@H](Oc3ccc(O)nn3)CC2)c(C(=O)O)s1)C(F)(F)F", "note": "[Compound 343, 3-((1r,4R)—N-((1r,4R)-4-(6-hydroxypyridazin-3-yloxy)cyclohexyl)-4-methylcyclohexanecarboxamido)-5-(4,4,4-trifluoro-3,3-dimethylbut-1-ynyl)thiophene-2-carboxylic acid]", "inhibition at 2 µM": 100}, {"compound": "C[C@H]1CC[C@H](C(=O)N(c2cc(C#CC3(C(F)(F)F)CC3)sc2C(=O)O)[C@H]2CC[C@H](Oc3ccncn3)CC2)CC1", "note": "[Compound 344, 3-((1r,4R)-4-methyl-N-((1r,4R)-4-(pyrimidin-4-yloxy)cyclohexyl)cyclohexanecarboxamido)-5-(2-(1-(trifluoromethyl)cyclopropyl)ethynyl)thiophene-2-carboxylic acid]", "inhibition at 2 µM": 99.8}, {"compound": "C[C@H]1CC[C@H](C(=O)N(c2cc(C#CC3(C(F)(F)F)CC3)sc2C(=O)O)[C@H]2CC[C@H](OC3CCOC3)CC2)CC1", "note": "(stereo partly drawn) [Compound 345, 3-((1r,4R)-4-methyl-N-((1r,4R)-4-(tetrahydrofuran-3-yloxy)cyclohexyl)cyclohexanecarboxamido)-5-(2-(1-(trifluoromethyl)cyclopropyl)ethynyl)thiophene-2-carboxylic acid]", "inhibition at 2 µM": 100}, {"compound": "C[C@H]1CC[C@H](C(=O)N(c2cc(C#CC3(C(F)(F)F)CC3)sc2C(=O)O)[C@H]2CC[C@@H](OC3CCOC3)CC2)CC1", "note": "(stereo partly drawn) [Compound 346, 3-((1r,4R)-4-methyl-N-((1s,4S)-4-(tetrahydrofuran-3-yloxy)cyclohexyl)cyclohexanecarboxamido)-5-(2-(1-(trifluoromethyl)cyclopropyl)ethynyl)thiophene-2-carboxylic acid]", "inhibition at 2 µM": 99.5}]}]}
